The source of these data is patent US11746116B2, “Antibiotic resistance breakers” (KING'S COLLEGE LONDON, priority 2017, dated 2023).

For data set [1] the following is noted: mouse, in vivo.
For data set [2] the following is noted: male, CD-1 (ICR), mouse, in vivo, iv, 5 mg/kg.

Read-outs that look alike come from different tables or passages of the source.

`C[C@H]1COc2c(N3CC[C@@H](Nc4ncccn4)C3)c(F)cc3c(=O)c(C(=O)O)cn1c23` [KSN-82-L22]: in data set [1] (male, CD-1 (ICR)), the “Bioavailability Using AUCinf” value was 49-3% and the “Bioavailability Using AUCo.t” value stood at 32.0%. For the same molecule, the AUGinf in data set [1] (male, CD-1 (ICR), po, 20 mg/kg) was determined as 13203 ng·h/mL. Moreover, the T½ in data set [1] (po, 20 mg/kg) is listed as 5-1 h. Moreover, in data set [2], the AUGinf worked out at 6691 ng·h/mL and the “Liver Blood Flow” value is on record as 10.4%.
